Laboratory results: ChEMBL document CHEMBL1152840, “Antileukotrienic phenethylamido derivatives of arylalkanoic acids in the treatment of ulcerative colitis” (Eur J Med Chem, 2009)

How the values were obtained:
[1] = tested on: Mus musculus; assay: Antiinflammatory activity in mouse assessed as inhibition of arachidonic acid-induced ear lobe hyperemia at 200 mg/kg, po administered 1 hr before arachidonic acid challenge measured after 1 hr relative to untreated control; assay type: functional
[2] = tested on: Mus musculus; assay: Antiinflammatory activity against dextrane disodium sulfate-induced ulcerative colitis in BALB/c mouse assessed as diseased animal with rectal prolapse at 250 mg/kg administered 1 hr before dextrane disodium sulfate challenge; assay type: functional
[3] = Lipophilicity, log K by HPLC method; assay type: physicochemical
[4] = Antileukotrienic activity in rat PMNC assessed as inhibition of Ca2+ ionophore A23187-induced LTB4 production by RIA; assay type: functional
[5] = tested on: Mus musculus; assay: Antiinflammatory activity against dextrane disodium sulfate-induced ulcerative colitis in BALB/c mouse assessed as length of colon at 250 mg/kg administered 1 hr before dextrane disodium sulfate challenge; assay type: functional
[6] = tested on: Mus musculus; assay: Antiinflammatory activity against dextrane disodium sulfate-induced ulcerative colitis in BALB/c mouse assessed as diseased animal with small intestine bleeding at 250 mg/kg administered 1 hr before dextrane disodium sulfate challenge; assay type: functional
[7] = tested on: Mus musculus; assay: Antiinflammatory activity against dextrane disodium sulfate-induced ulcerative colitis in BALB/c mouse assessed as diseased animal with large intestine bleeding at 250 mg/kg administered 1 hr before dextrane disodium sulfate challenge; assay type: functional
[8] = tested on: Mus musculus; assay: Antiinflammatory activity in mouse assessed as inhibition of arachidonic acid-induced ear lobe edema at 200 mg/kg, po administered 1 hr before arachidonic acid challenge measured after 1 hr relative to untreated control; assay type: functional
[9] = tested on: Mus musculus; assay: Antiinflammatory activity against dextrane disodium sulfate-induced ulcerative colitis in BALB/c mouse assessed as diseased animal with stool consistency at 250 mg/kg administered 1 hr before dextrane disodium sulfate challenge; assay type: functional
[10] = tested on: Rattus norvegicus; assay: Antiinflammatory activity in rat assessed as inhibition of carrageenan-induced edema at 100 mg/kg relative to untreated control; assay type: functional

Compound | inhibition in vivo at 200 mg/kg [1] | Activity [2] | log K [3] | IC50 [4] | Activity [5] | Activity [6] | Activity [7] | inhibition in vivo at 200 mg/kg [8] | Activity [9] | inhibition in vivo at 100 mg/kg [10]
CC(CCc1ccc(OCCCOc2ccc(CC(=O)N(C)CCc3ccccc3)cc2)cc1)C(=O)O (stereo not given) | 3.7% | 0% | 0.636 | 7.5 µM | 7.2 cm | 0% | 60% | 16% | 100% | –
CC(CCc1ccc(OCCCCOc2ccc(CC(=O)N(C)CCc3ccccc3)cc2)cc1)C(=O)O (stereo not given) | 3.7% | 0% | 0.752 | 10 µM | 9.3 cm | 0% | 60% | 22% | 0% | 56%
CN(CCc1ccccc1)C(=O)Cc1ccc(OCCOc2ccc(C(=O)CCC(=O)O)cc2)cc1 | 3.6% | 0% | -0.089 | 20 µM | 9.2 cm | 0% | 20% | 16% | 0% | 38%
CN(CCc1ccccc1)C(=O)Cc1ccc(OCCOc2ccc(/C=C/C(=O)O)cc2)cc1 | 3.4% | – | 0.081 | 47 µM | – | – | – | 9.4% | – | 43%
COc1cc(/C=C/C(=O)O)ccc1OCCOc1ccc(CC(=O)N(C)CCc2ccccc2)cc1 | 0% | 0% | -0.061 | – | 7.2 cm | 0% | 40% | 23% | 40% | 10%
CN(CCc1ccccc1)C(=O)Cc1ccc(OCCCOc2ccc(/C=C/C(=O)O)cc2)cc1 | 3.7% | – | 0.336 | 8.5 µM | – | – | – | 21% | – | 13%
COc1cc(/C=C/C(=O)O)ccc1OCCCOc1ccc(CC(=O)N(C)CCc2ccccc2)cc1 | 7.1% | – | 0.166 | – | – | – | – | 16% | – | 20%
COc1cc(/C=C/C(=O)O)ccc1OCCCCOc1ccc(CC(=O)N(C)CCc2ccccc2)cc1 | 0% | 0% | 0.274 | 13 µM | 6.8 cm | 0% | 100% | 23% | 80% | 5.5%
CN(CCc1ccccc1)C(=O)Cc1ccc(OCCOc2ccc(CCCC(=O)O)cc2)cc1 | 3.6% | 0% | 0.231 | 9.5 µM | 7.1 cm | 0% | 100% | 12% | 80% | 36%
CN(CCc1ccccc1)C(=O)Cc1ccc(OCCCOc2ccc(CCCC(=O)O)cc2)cc1 | 3.4% | – | 0.451 | 12 µM | – | – | – | 13% | – | 30%
CN(CCc1ccccc1)C(=O)Cc1ccc(OCCCCOc2ccc(CCCC(=O)O)cc2)cc1 | 3.7% | 0% | 0.6 | 16 µM | 7.2 cm | 0% | 100% | 22% | 60% | 38%
CC(CCc1ccc(OCCOc2ccc(CC(=O)N(C)CCc3ccccc3)cc2)cc1)C(=O)O (stereo not given) | 3.7% | – | 0.38 | 19 µM | – | – | – | 14% | – | 14%
CC(C(=O)O)c1cccc2ccc(OCCCCOc3ccc(CC(=O)NCCc4ccccc4)cc3)cc12 (stereo not given) | 3.3% | 0% | 0.755 | 5.6 µM | 7.5 cm | 0% | 80% | 26% | 20% | 22%
CC(C(=O)O)c1ccc(OCCCOc2ccc(CC(=O)N(C)CCc3ccccc3)cc2)c(Cl)c1 (stereo not given) | – | – | 0.432 | 9.1 µM | – | – | – | – | – | –
CC(C(=O)O)c1ccc(OCCCCOc2ccc(CC(=O)N(C)CCc3ccccc3)cc2)c(Cl)c1 (stereo not given) | 0% | 0% | 0.554 | 5.6 µM | 7.9 cm | 0% | 60% | 37% | 0% | 44%
CN(CCc1ccccc1)C(=O)Cc1ccc(OCCCOc2ccc(CCC(=O)O)cc2)cc1 | 3.7% | 0% | 0.324 | 11 µM | 6.8 cm | 0% | 100% | 23% | 80% | 61%
CC(C(=O)O)c1cccc2ccc(OCCCOc3ccc(CC(=O)NCCc4ccccc4)cc3)cc12 (stereo not given) | 0% | – | 0.617 | 5.7 µM | – | – | – | 12% | – | 30%
COc1cc(CCC(=O)O)ccc1OCCCOc1ccc(CC(=O)N(C)CCc2ccccc2)cc1 | 7.4% | – | 0.175 | – | – | – | – | 12% | – | 26%
COc1cc(CCC(=O)O)ccc1OCCCCOc1ccc(CC(=O)N(C)CCc2ccccc2)cc1 | 11% | 0% | 0.267 | 8.1 µM | 7 cm | 0% | 100% | 20% | 60% | 27%
CC(C(=O)O)c1ccc(OCCCOc2ccc(CC(=O)N(C)CCc3ccccc3)cc2)cc1 (stereo not given) | 3.7% | – | 0.344 | 100 µM | – | – | – | 19% | – | 9.2%
CC(Cc1ccc(OCCCOc2ccc(CC(=O)N(C)CCc3ccccc3)cc2)cc1)C(=O)O (stereo not given) | – | – | 0.502 | 8.2 µM | – | – | – | – | – | –
CC(Cc1ccc(OCCCCOc2ccc(CC(=O)N(C)CCc3ccccc3)cc2)cc1)C(=O)O (stereo not given) | 7.4% | – | 0.604 | 10 µM | – | – | – | 10% | – | 37%
CN(CCc1ccccc1)C(=O)Cc1ccc(OCCCCOc2ccc(CCC(=O)O)cc2)cc1 | 3.4% | – | 0.451 | 10 µM | – | – | – | 13% | – | 30%
CC(C(=O)O)c1ccc(OCCCCOc2ccc(CC(=O)N(C)CCc3ccccc3)cc2)cc1 (stereo not given) | 0% | 0% | 0.458 | 31 µM | 7.2 cm | 20% | 100% | 19% | 100% | 63%
CN(CCc1ccccc1)C(=O)Cc1ccc(OCCCCOc2ccc(/C=C/C(=O)O)cc2)cc1 | 6.7% | – | 0.462 | 8.7 µM | – | – | – | 22% | – | 20%
O=C(O)c1cc(/N=N/c2ccc(S(=O)(=O)Nc3ccccn3)cc2)ccc1O [SULFASALAZINE] | – | 0% | – | – | 9.1 cm | 0% | 80% | – | 53% | –
